Publication PMC8253220, “Molecular design, synthesis and in vitro biological evaluation of thienopyrimidine–hydroxamic acids as chimeric kinase HDAC inhibitors: a challenging approach to combat cancer” (Journal of Enzyme Inhibition and Medicinal Chemistry, 2021)
“And” between values parts separate entries of the source, which are not always exact repeats. Identical values can stand only once.

Key:
NCI-H460 = experiment: NCI one-dose screen; type: cell-based, human; details: NSCLC NCI-H460, 10 µM single dose
Summary of the method: (§1)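 At 10 μM, a single concentration, compounds were evaluated for antiproliferative effect in the NCI 60-line screen, with growth expressed relative to untreated control cells.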

T-47D = experiment: NCI one-dose screen; type: cell-based, human; details: Breast T-47D, 10 µM single dose
Summary of the method: as §1

KM12 = experiment: NCI one-dose screen; type: cell-based, human; details: Colon KM12, 10 µM single dose
Summary of the method: (§2)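 Screening used the full NCI panel of 60 cancer cell lines with compounds dosed once at 10 μM; the reported value is percent growth inhibition versus untreated controls.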

NCI-H322M = experiment: NCI one-dose screen; type: cell-based, human; details: NSCLC NCI-H322M, 10 µM single dose
Summary of the method: as §1

UACC-62 = experiment: NCI one-dose screen; type: cell-based, human; details: Melanoma UACC-62, 10 µM single dose
Summary of the method: as §1

SK-MEL-2 = experiment: NCI one-dose screen; type: cell-based, human; details: Melanoma SK-MEL-2, 10 µM single dose
Summary of the method: as §1

RPMI-8226 = experiment: NCI one-dose screen; type: cell-based, human; details: Leukemia RPMI-8226, 10 µM single dose
Summary of the method: as §1

A549/ATCC = experiment: NCI one-dose screen; type: cell-based, human; details: NSCLC A549/ATCC, 10 µM single dose
Summary of the method: as §1

NCI/ADR-RES = experiment: NCI one-dose screen; type: cell-based, human; details: Ovarian NCI/ADR-RES, 10 µM single dose
Summary of the method: as §1

SNB-19 = experiment: NCI one-dose screen; type: cell-based, human; details: CNS SNB-19, 10 µM single dose
Summary of the method: as §1

M14 = experiment: NCI one-dose screen; type: cell-based, human; details: Melanoma M14, 10 µM single dose
Summary of the method: as §1

HT29 = experiment: NCI one-dose screen; type: cell-based, human; details: Colon HT29, 10 µM single dose
Summary of the method: as §1

HS 578T = experiment: NCI one-dose screen; type: cell-based, human; details: Breast HS 578T, 10 µM single dose
Summary of the method: as §1

UO-31 = experiment: NCI one-dose screen; type: cell-based, human; details: Renal UO-31, 10 µM single dose
Summary of the method: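 Compounds were tested at a single dose of 10 μM across the full NCI-60 cell line panel. Growth was expressed as percent growth relative to untreated control cells, reported as percent inhibition.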

MOLT-4 = experiment: NCI one-dose screen; type: cell-based, human; details: Leukemia MOLT-4, 10 µM single dose
Summary of the method: as §2

UACC-257 = experiment: NCI one-dose screen; type: cell-based, human; details: Melanoma UACC-257, 10 µM single dose
Summary of the method: as §1

MDA-MB-435 = experiment: NCI one-dose screen; type: cell-based, human; details: Melanoma MDA-MB-435, 10 µM single dose
Summary of the method: as §1

HCT-116 = experiment: NCI one-dose screen; type: cell-based, human; details: Colon HCT-116, 10 µM single dose
Summary of the method: as §1

CAKI-1 = experiment: NCI one-dose screen; type: cell-based, human; details: Renal CAKI-1, 10 µM single dose
Summary of the method: as §1

SF-539 = experiment: NCI one-dose screen; type: cell-based, human; details: CNS SF-539, 10 µM single dose
Summary of the method: as §2

SK-OV-3 = experiment: NCI one-dose screen; type: cell-based, human; details: Ovarian SK-OV-3, 10 µM single dose
Summary of the method: as §1

HL-60(TB) = experiment: NCI one-dose screen; type: cell-based, human; details: Leukemia HL-60(TB), 10 µM single dose
Summary of the method: as §1

SF-295 = experiment: NCI one-dose screen; type: cell-based, human; details: CNS SF-295, 10 µM single dose
Summary of the method: as §1

SR = experiment: NCI one-dose screen; type: cell-based, human; details: Leukemia SR, 10 µM single dose
Summary of the method: as §1

Hela nuclear extracts = experiment: Hela nuclear extract HDAC inhibitor assay (BPS Bioscience); type: biochemical; details: 10 µM
Summary of the method: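 Percent activity was derived from fluorescence (ex 360, em 460 nm) relative to no-compound (100%) and no-extract (0%) wells. Reactions ran in duplicate for 60 min at 37 °C, combining diluted HeLa nuclear extract, HDAC Substrate 3 ([…]), BSA and compound in 1% DMSO, followed by developer.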

Structure (SMILES)	Growth Percent (NCI-H460)	Growth Percent (T-47D)	Growth Percent (KM12)	Growth Percent (NCI-H322M)	Growth Percent (UACC-62)	Growth Percent (SK-MEL-2)	Growth Percent (RPMI-8226)	Growth Percent (A549/ATCC)	Growth Percent (NCI/ADR-RES)	Growth Percent (SNB-19)	Growth Percent (M14)	Growth Percent (HT29)	Growth Percent (HS 578T) [%]	Growth Percent (UO-31)	Growth Percent (MOLT-4)	Growth Percent (UACC-257)	Growth Percent (MDA-MB-435)	Growth Percent (HCT-116)	Growth Percent (CAKI-1)	Growth Percent (SF-539)	also measured
COc1cccc(NC(=O)Nc2ccc(Nc3ncnc4sc(C(=O)NCCCC(=O)NO)c(C)c34)cc2)c1 [Compound 12b, 1–(4-(6-((4-(hydroxyamino)-4-oxobutyl)carbamoyl)-5-methylthieno[2,3-d]pyrimidin-4-ylamino)phenyl)-3–(3-methoxyphenyl)urea]	99.1%	97.6% and 97.69%	101.3% and 101.38%	95.9% and 95.94%	95.3% and 95.39%	94.6% and 94.66%	106.6% and 106.68%	105.8% and 105.84%	101.6% and 101.63%	97.9%	104.0% and 104.04%	95.3%	99.2	82.0% and 82.06%	104.7% and 104.76%	104.3% and 104.35%	100.9%	99.2% and 99.29%	97.1% and 97.14%	98.2% and 98.26%	Growth Percent (SK-OV-3): 114.7% and 114.77%; Growth Percent (HL-60(TB)): 102.4%; Growth Percent (SF-295): 102.5% and 102.51%; Growth Percent (SR): 108.2% and 108.25%; % Inhibition Hela Nuclear Extracts (Hela nuclear extracts): 3%
Cc1c(C(=O)NCCC(=O)NO)sc2ncnc(Nc3ccc(NC(=O)Nc4cccc(C(F)(F)F)c4)cc3)c12 [Compound 11c, 1–(4-(6-((3-(hydroxyamino)-3-oxopropyl)carbamoyl)-5-methylthieno[2,3-d]pyrimidin-4-ylamino)phenyl)-3–(3-(trifluoromethyl)phenyl)urea]	99.4% and 99.41%	101.4% and 101.45%	100.1% and 100.15%	103.7% and 103.74%	99.6% and 99.62%	108.7% and 108.73%	102.2% and 102.26%	103.7% and 103.74%	103.1% and 103.18%	93.6% and 93.62%	107.0% and 107.01%	109.8% and 109.85%	93.51	87.0% and 87.09%	105.7% and 105.79%	108.3% and 108.33%	103.1% and 103.18%	107.9% and 107.91%	99.3% and 99.31%	78.9% and 78.96%	Growth Percent (SK-OV-3): 115.3% and 115.32%; Growth Percent (HL-60(TB)): 105.0% and 105.04%; Growth Percent (SF-295): 91.8% and 91.82%; Growth Percent (SR): 101.0% and 101.07%; % Inhibition Hela Nuclear Extracts (Hela nuclear extracts): 5%
